Test results reported in patent publication US7799748B2, “Method of selecting benefit agents/oils suitable for reducing surfactant damage” (Conopco, Inc., priority 2005, dated 2010).

Assays:
[1] = target: BSA (Bovine Serum Albumin) (Bos taurus, UniProt P02769); assay: Conductivity test: surfactant binding to BSA protein; details: 10% SDS with 10% oil (1:1) or 10% SDS alone; 0.5% BSA in 0.02M acetate buffer pH~5.2, room temperature
Method: Conductance measurements were carried out at room temperature by use of a Thermo conductivity meter, model Orion 150+. Routinely, the titrations were performed by adding a controlled amount of 10% of stock surfactant solution under magnetic stirring into the 0.5% BSA (Bovine Serum Albumin) in 0.02M acetate buffer at pH˜5.2. Values of CMC (critical micellization concentration), CAC (critical aggregation concentration) and protein saturation point (PSP) were defined by the changing of the slope of the conductivity vs. surfactant concentration plots. The number of surfactants binding to each protein can be calculated by: {[PSP]−[CAC]}/{[protein]/Mwprotein}, where [protein] is the protein concentration.
In order to show the effect of benefit agent having different polarity on binding to protein molecule (a reflection of the harshness of surfactant; more surfactant binding to protein equal harsher and more damage expected), applicants tested surfactant binding of (1) surfactant alone and (2) of surfactant in combination with various oils/cosolvents (at 1:1 surfactant to oil ratio) to see level of (how many) surfactants binding per protein molecule (e.g., BSA) at saturation. The tests were done using conductivity test described in protocol and results are set forth below in Table 1.
Applicants conducted same test as in Examples 1 to 10, but used SLES/CAPB surfactant system instead of SDS.

[2] = target: BSA protein (Bos taurus, UniProt P02769); assay: Micro-DSC for protein denaturation; parameters: species or system Bovine; details: denaturation enthalpy approaching zero, FIG. 5
Method: 1.2% of BSA acetate buffer solution was prepared (pH 5.2, IS 0.02). […] Then the BSA acetate solution was titrated with either oil, or surfactant, or oil/surfactant at 1:1 ratio. After each titration, a DSC measurement was performed.

Sequence of BSA protein (P02769 25-607): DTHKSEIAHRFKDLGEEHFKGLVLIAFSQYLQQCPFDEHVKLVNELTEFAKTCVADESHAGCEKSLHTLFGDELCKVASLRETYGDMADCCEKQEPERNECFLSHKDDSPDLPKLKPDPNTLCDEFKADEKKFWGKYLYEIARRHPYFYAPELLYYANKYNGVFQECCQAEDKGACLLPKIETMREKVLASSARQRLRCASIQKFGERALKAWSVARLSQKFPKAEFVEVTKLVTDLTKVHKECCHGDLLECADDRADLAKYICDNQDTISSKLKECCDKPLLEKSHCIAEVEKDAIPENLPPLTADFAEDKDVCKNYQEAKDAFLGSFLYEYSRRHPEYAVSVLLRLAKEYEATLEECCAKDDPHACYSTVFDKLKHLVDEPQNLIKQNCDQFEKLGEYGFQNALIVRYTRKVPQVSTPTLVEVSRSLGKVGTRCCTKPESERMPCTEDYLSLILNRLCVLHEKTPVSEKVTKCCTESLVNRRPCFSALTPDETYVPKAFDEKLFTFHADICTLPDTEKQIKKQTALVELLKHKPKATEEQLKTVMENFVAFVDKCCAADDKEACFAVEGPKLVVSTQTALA
Sequence of BSA (Bovine Serum Albumin) (P02769 25-607): as above

SMILES: CCCCCCCCCCCCOS(=O)(=O)[O-].[Na+] [10% SDS (surfactant alone), Sodium dodecyl sulfate]
- Saturated binding: No. of surfactant per BSA at saturation [1]: 220
- ratio surfactant to protein at which BSA protein is fully denatured at room temperature [2]: about 1.2
